Patent publication US12077503B2, “Substituted cyclic amides and their use as herbicides” (FMC CORPORATION, priority 2015, dated 2024)

Tests used:
Test in all cases: Test C preemergence
Assay type in all cases: in vivo
[1] = system: Galium (catchweed bedstraw, Galium aparine); conditions: for Plant response rating, Galium: scale 0 to 100, 0 no effect, 100 complete control
How it was run: (§1)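 Visual rating, 0–100 scale (0 = no effect, 100 = complete control) versus controls, 13–15 d after treatment. Compounds in non-phytotoxic solvent plus surfactant; applied preemergence to seeds in loam/sand soil or postemergence to 1- to 4-leaf plants (2–18 cm) in peat/vermiculite medium; greenhouse-held.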

[2] = system: barnyardgrass (Echinochloa crus-galli); conditions: for Plant response rating, Barnyardgrass: scale 0 to 100, 0 no effect, 100 complete control
How it was run: as §1

[3] = system: blackgrass (Alopecurus myosuroides); conditions: for Plant response rating, Blackgrass: scale 0 to 100, 0 no effect, 100 complete control
How it was run: as §1

corn (Zea mays) = conditions: for Plant response rating, Corn: scale 0 to 100, 0 no effect, 100 complete control
How it was run: as §1

[4] = system: crabgrass, large (large crabgrass, Digitaria sanguinalis); conditions: for Plant response rating, Crabgrass, Large: scale 0 to 100, 0 no effect, 100 complete control
How it was run: as §1

[5] = system: foxtail, giant (giant foxtail, Setaria faberii); conditions: for Plant response rating, Foxtail, Giant: scale 0 to 100, 0 no effect, 100 complete control
How it was run: as §1

[6] = system: johnsongrass (Sorghum halepense); conditions: for Plant response rating, Johnsongrass: scale 0 to 100, 0 no effect, 100 complete control
How it was run: as §1

[7] = system: lambsquarters (Chenopodium album); conditions: for Plant response rating, Lambsquarters: scale 0 to 100, 0 no effect, 100 complete control
How it was run: as §1

[8] = system: morningglory (Ipomoea coccinea); conditions: for Plant response rating, Morningglory: scale 0 to 100, 0 no effect, 100 complete control
How it was run: as §1

[9] = system: nutsedge, yellow (yellow nutsedge, Cyperus esculentus); conditions: for Plant response rating, Nutsedge, Yellow: scale 0 to 100, 0 no effect, 100 complete control
How it was run: as §1

[10] = system: oilseed rape (Brassica napus); conditions: for Plant response rating, Oilseed Rape: scale 0 to 100, 0 no effect, 100 complete control
How it was run: as §1

[11] = system: ragweed (common ragweed, Ambrosia elatior); conditions: for Plant response rating, Ragweed: scale 0 to 100, 0 no effect, 100 complete control
How it was run: as §1

[12] = system: ryegrass, Italian (Italian ryegrass, Lolium multiflorum); conditions: for Plant response rating, Ryegrass, Italian: scale 0 to 100, 0 no effect, 100 complete control
How it was run: as §1

soybean (Glycine max) = conditions: scale 0 to 100, 0 no effect, 100 complete control
How it was run: as §1

[13] = system: velvetleaf (Abutilon theophrasti); conditions: for Plant response rating, Velvetleaf: scale 0 to 100, 0 no effect, 100 complete control
How it was run: as §1

[14] = system: waterhemp (common waterhemp, Amaranthus rudis); conditions: for Plant response rating, Waterhemp: scale 0 to 100, 0 no effect, 100 complete control
How it was run: as §1

[15] = system: wheat (winter wheat, Triticum aestivum); conditions: for Plant response rating, Wheat: scale 0 to 100, 0 no effect, 100 complete control
How it was run: as §1

[16] = 31 g ai/ha, 0 is no effect, 100 is complete control

## Cc1cccc(C2CN(C)C(=O)C2C(=O)Nc2cccc(F)c2F)c1 (stereo not shown) [Compound 667]
[1]; [16]
  Plant response rating (scale of 0 to 100), Galium: 10
[1]; 62 g ai/ha
  Plant response rating, Galium: 100
[1]; 125 g ai/ha
  Plant response rating, Galium: 98
[1]; 250 g ai/ha
  Plant response rating, Galium: 90
[2]; [16]
  Plant response rating (scale of 0 to 100), Barnyardgrass: 95
[2]; 62 g ai/ha
  Plant response rating, Barnyardgrass: 95
[2]; 125 g ai/ha
  Plant response rating, Barnyardgrass: 98
[2]; 250 g ai/ha
  Plant response rating, Barnyardgrass: 100
[3]; [16]
  Plant response rating (scale of 0 to 100), Blackgrass: 50
[3]; 62 g ai/ha
  Plant response rating, Blackgrass: 80
[3]; 125 g ai/ha
  Plant response rating, Blackgrass: 85
[3]; 250 g ai/ha
  Plant response rating, Blackgrass: 95
Corn (Zea mays); [16]
  Plant response rating (scale of 0 to 100), Corn: 55
Corn (Zea mays); 62 g ai/ha
  Plant response rating, Corn: 70
Corn (Zea mays); 125 g ai/ha
  Plant response rating, Corn: 80
Corn (Zea mays); 250 g ai/ha
  Plant response rating, Corn: 85
[4]; [16]
  Plant response rating (scale of 0 to 100), Crabgrass, Large: 95
[4]; 62 g ai/ha
  Plant response rating, Crabgrass, Large: 95
[4]; 125 g ai/ha
  Plant response rating, Crabgrass, Large: 98
[4]; 250 g ai/ha
  Plant response rating, Crabgrass, Large: 98
[5]; [16]
  Plant response rating (scale of 0 to 100), Foxtail, Giant: 95
[5]; 62 g ai/ha
  Plant response rating, Foxtail, Giant: 98
[5]; 125 g ai/ha
  Plant response rating, Foxtail, Giant: 98
[5]; 250 g ai/ha
  Plant response rating, Foxtail, Giant: 100
[6]; [16]
  Plant response rating (scale of 0 to 100), Johnsongrass: 70
[6]; 62 g ai/ha
  Plant response rating, Johnsongrass: 80
[6]; 125 g ai/ha
  Plant response rating, Johnsongrass: 85
[6]; 250 g ai/ha
  Plant response rating, Johnsongrass: 90
[7]; [16]
  Plant response rating (scale of 0 to 100), Lambsquarters: 50
[7]; 62 g ai/ha
  Plant response rating, Lambsquarters: 70
[7]; 125 g ai/ha
  Plant response rating, Lambsquarters: 90
[7]; 250 g ai/ha
  Plant response rating, Lambsquarters: 100
[8]; [16]
  Plant response rating (scale of 0 to 100), Morningglory: 0
[8]; 62 g ai/ha
  Plant response rating, Morningglory: 0
[8]; 125 g ai/ha
  Plant response rating, Morningglory: 0
[8]; 250 g ai/ha
  Plant response rating, Morningglory: 10
[9]; [16]
  Plant response rating (scale of 0 to 100), Nutsedge, Yellow: 0
[9]; 62 g ai/ha
  Plant response rating, Nutsedge, Yellow: 0
[9]; 125 g ai/ha
  Plant response rating, Nutsedge, Yellow: 0
[9]; 250 g ai/ha
  Plant response rating, Nutsedge, Yellow: 25
[10]; [16]
  Plant response rating (scale of 0 to 100), Oilseed Rape: 35
[10]; 62 g ai/ha
  Plant response rating, Oilseed Rape: 85
[10]; 125 g ai/ha
  Plant response rating, Oilseed Rape: 85
[10]; 250 g ai/ha
  Plant response rating, Oilseed Rape: 90
[11]; [16]
  Plant response rating (scale of 0 to 100), Ragweed: 25
[11]; 62 g ai/ha
  Plant response rating, Ragweed: 100
[11]; 125 g ai/ha
  Plant response rating, Ragweed: 70
[11]; 250 g ai/ha
  Plant response rating, Ragweed: 80
[12]; [16]
  Plant response rating (scale of 0 to 100), Ryegrass, Italian: 60
[12]; 62 g ai/ha
  Plant response rating, Ryegrass, Italian: 70
[12]; 125 g ai/ha
  Plant response rating, Ryegrass, Italian: 95
[12]; 250 g ai/ha
  Plant response rating, Ryegrass, Italian: 98
Soybean (Glycine max); 62 g ai/ha
  Plant response rating, Soybean: 10
Soybean (Glycine max); 125 g ai/ha
  Plant response rating, Soybean: 0
Soybean (Glycine max); 250 g ai/ha
  Plant response rating, Soybean: 0
[13]; [16]
  Plant response rating (scale of 0 to 100), Velvetleaf: 5
[13]; 62 g ai/ha
  Plant response rating, Velvetleaf: 30
[13]; 125 g ai/ha
  Plant response rating, Velvetleaf: 50
[13]; 250 g ai/ha
  Plant response rating, Velvetleaf: 40
[14]; [16]
  Plant response rating (scale of 0 to 100), Waterhemp: 0
[14]; 62 g ai/ha
  Plant response rating, Waterhemp: 10
[14]; 125 g ai/ha
  Plant response rating, Waterhemp: 60
[14]; 250 g ai/ha
  Plant response rating, Waterhemp: 75
[15]; [16]
  Plant response rating (scale of 0 to 100), Wheat: 0
[15]; 62 g ai/ha
  Plant response rating, Wheat: 10
[15]; 125 g ai/ha
  Plant response rating, Wheat: 55
[15]; 250 g ai/ha
  Plant response rating, Wheat: 50
